Experimental data from US20250332178A1, “METHODS OF TREATING MYCOBACTERIAL INFECTIONS USING TETRACYCLINE COMPOUNDS” (priority 2018, published 2025).
Values after ≈ are worked out from the molar mass of the structure shown.

Columns and labels:
Assay type in all cases: cell-based
[1] = test system: Mycobacterium abscessus; assay: MIC by broth microdilution in CAMHB, clinical isolates
Protocol: (§1) A total of 24 clinical isolates of Mycobacterium abscessus, 22 clinical isolates of Mycobacterium chelonae and 20 clinical isolates of Mycobacterium fortuitum were tested in the study. The study also used the antibiotics tigecycline, doxycycline and amikacin for comparison purposes. […] Amikacin was dissolved in DMSO prior to freezing at −20° C. For susceptibility testing, stock solutions of antibiotic compounds were serially diluted in 50 μL of cation adjusted Mueller-Hinton broth (CAMHB) in polystryrene 96-well round-bottom microtiter plates. To each well, 50 μL of the appropriate mycobacterial cell suspension was added to yield a final concentration of about 1×10^5 CFU/mL. The inoculum used for each isolate was measured by titration in saline with Tween 80 and plating on MH agar. The Mycobacterium abscessus and Mycobacterium fortuitum titer plates were incubated at 37° C. in ambient air for 3-4 days and 5-7 days, respectively. The Mycobacterium chelonae titer plates were incubated at 30° C. in ambient air for 3-5 days. Each isolate was tested at least in duplicate. The MIC was defined as the lowest concentration of antimicrobial agent yielding no visible turbidity.

[2] = test system: Mycobacterium chelonae; assay: as above
Protocol: as §1

[3] = test system: M. immunogenum group; assay: MIC (CLSI broth dilution), RGM isolates; details: M. immunogenum
[4] = test system: M. fortuitum group; assay: MIC (CLSI broth dilution), RGM isolates
[5] = test system: M. mucogenium group; assay: MIC (CLSI broth dilution), RGM isolates
[6] = test system: M. chelonae; assay: MIC (CLSI broth dilution), RGM isolates

Q: Which MIC ([1]; isolate No. 18, 5901) does the source give for `NCC[C@H](O)C(=O)N[C@@H]1C[C@H](N)[C@@H](O[C@H]2O[C@H](CN)[C@@H](O)[C@H](O)[C@H]2O)[C@H](O)[C@H]1O[C@H]1O[C@H](CO)[C@@H](O)[C@H](N)[C@H]1O` [Amikacin, amikacin] here?
A: The MIC was 2 µg/mL (≈ 3.42 µM).

Q: And the MIC ([1]; isolate No. 19, 5960)?
A: The MIC was 1 µg/mL (≈ 1.71 µM).

Q: And the MIC ([1]; isolate No. 20, 6142)?
A: Its MIC is 4 µg/mL (≈ 6.83 µM).

Q: What about the MIC ([1]; isolate No. 21, 5922) of the same compound?
A: The MIC was 2 µg/mL (≈ 3.42 µM).

Q: And the MIC ([1]; isolate No. 22, LT 949)?
A: Its MIC is 8 µg/mL (≈ 13.7 µM).

Q: What about the MIC ([1]; isolate No. 23, 6025) of the same compound?
A: The MIC was 8 µg/mL (≈ 13.7 µM).

Q: What about the MIC ([1]; isolate No. 24, 6153) of the same compound?
A: Its MIC is 8 µg/mL (≈ 13.7 µM).

Q: And the MIC50 ([2]; 22 clinical isolates)?
A: Its MIC50 is 4 µg/mL (≈ 6.83 µM).

Q: What about the MIC90 ([2]; 22 clinical isolates) of the same compound?
A: Its MIC90 is 8 µg/mL (≈ 13.7 µM).

Q: What about the MIC ([2]; isolate No. 1, MC 7323) of the same compound?
A: Its MIC is 4 µg/mL (≈ 6.83 µM).

Q: What about the MIC ([2]; isolate No. 2, MC 7534) of the same compound?
A: Its MIC is 8 µg/mL (≈ 13.7 µM).

Q: What about the MIC ([2]; isolate No. 3, MC 7368) of the same compound?
A: The MIC was 16 µg/mL (≈ 27.3 µM).

Q: And the MIC ([2]; isolate No. 4, MC 7514)?
A: Its MIC is 8 µg/mL (≈ 13.7 µM).

Q: What about the MIC ([2]; isolate No. 5, MC 7584) of the same compound?
A: Its MIC is 4 µg/mL (≈ 6.83 µM).

Q: What about the MIC ([2]; isolate No. 6, MC 7192) of the same compound?
A: Its MIC is 4 µg/mL (≈ 6.83 µM).

Q: And the MIC ([2]; isolate No. 7, MC 7466)?
A: Its MIC is 2 µg/mL (≈ 3.42 µM).

Q: And the MIC ([2]; isolate No. 8, MC 7533)?
A: The MIC was 4 µg/mL (≈ 6.83 µM).

Q: What about the MIC ([2]; isolate No. 9, MC 7579) of the same compound?
A: The MIC was 4 µg/mL (≈ 6.83 µM).

Q: And the MIC ([2]; isolate No. 10, MC 7614)?
A: Its MIC is 8 µg/mL (≈ 13.7 µM).

Q: What about the MIC ([2]; isolate No. 11, MC 7414) of the same compound?
A: Its MIC is 4 µg/mL (≈ 6.83 µM).

Q: And the MIC ([2]; isolate No. 12, MC 7313)?
A: Its MIC is 2 µg/mL (≈ 3.42 µM).

Q: And the MIC ([2]; isolate No. 13, MC 7281)?
A: The MIC was 8 µg/mL (≈ 13.7 µM).

Q: What about the MIC ([2]; isolate No. 14, MC 7328) of the same compound?
A: Its MIC is 8 µg/mL (≈ 13.7 µM).

Q: What about the MIC ([2]; isolate No. 15, MC 7294) of the same compound?
A: The MIC was 8 µg/mL (≈ 13.7 µM).

Q: What about the MIC ([2]; isolate No. 16, MC 14-S-03) of the same compound?
A: Its MIC is 4 µg/mL (≈ 6.83 µM).

Q: And the MIC ([2]; isolate No. 17, MC 14-S-04)?
A: The MIC was 4 µg/mL (≈ 6.83 µM).

Q: What about the MIC ([2]; isolate No. 18, MC 14-S-05) of the same compound?
A: The MIC was 8 µg/mL (≈ 13.7 µM).

Q: And the MIC ([2]; isolate No. 19, MC 14-S-06)?
A: Its MIC is 8 µg/mL (≈ 13.7 µM).

Q: What about the MIC ([2]; isolate No. 20, MC 14-S-07) of the same compound?
A: Its MIC is 4 µg/mL (≈ 6.83 µM).

Q: And the MIC ([2]; isolate No. 21, MC 35757)?
A: The MIC was 2 µg/mL (≈ 3.42 µM).

Q: And the MIC ([2]; isolate No. 22, MC 7302)?
A: The MIC was 4 µg/mL (≈ 6.83 µM).

Q: And the MIC ([3]; isolate 35, M. immunogenum group)?
A: The MIC was 16 µg/mL (≈ 27.3 µM).

Q: What about the MIC ([3]; isolate 36, M. immunogenum group) of the same compound?
A: Its MIC is 4 µg/mL (≈ 6.83 µM).

Q: And the MIC ([3]; isolate 37, M. immunogenum group)?
A: Its MIC is 8 µg/mL (≈ 13.7 µM).

Q: What about the MIC ([3]; isolate 38, M. immunogenum group) of the same compound?
A: The MIC was 8 µg/mL (≈ 13.7 µM).

Q: And the MIC ([4]; isolate 23, M. fortuitum group, M. fortuitum)?
A: The MIC was no more than 2 µg/mL.

Q: What about the MIC ([4]; isolate 24, M. fortuitum group, M. fortuitum) of the same compound?
A: The MIC was no more than 2 µg/mL.

Q: And the MIC ([4]; isolate 25, M. fortuitum group, M. fortuitum)?
A: The MIC was no more than 2 µg/mL.

Q: And the MIC ([4]; isolate 26, M. fortuitum group, M. porcinum)?
A: The MIC was no more than 2 µg/mL.

Q: And the MIC ([4]; isolate 27, M. fortuitum group, M. porcinum)?
A: Its MIC is no more than 2 µg/mL.

Q: What about the MIC ([4]; isolate 28, M. fortuitum group, M. porcinum/M. boenickei) of the same compound?
A: Its MIC is no more than 2 µg/mL.

Q: And the MIC ([4]; isolate 29, M. fortuitum group, M. porcinum/M. boenickei)?
A: The MIC was no more than 2 µg/mL.

Q: What about the MIC ([4]; isolate 30, M. fortuitum group, M. porcinum/M. boenickei) of the same compound?
A: The MIC was no more than 2 µg/mL.

Q: And the MIC ([4]; isolate 31, M. fortuitum group, M. senegalense)?
A: Its MIC is no more than 2 µg/mL.

Q: And the MIC ([4]; isolate 32, M. fortuitum group, M. senegalense)?
A: Its MIC is no more than 2 µg/mL.

Q: What about the MIC ([4]; isolate 33, M. fortuitum group, M. senegalense) of the same compound?
A: The MIC was no more than 2 µg/mL.

Q: And the MIC ([4]; isolate 34, M. fortuitum group, M. senegalense)?
A: The MIC was no more than 2 µg/mL.

Q: And the MIC ([5]; isolate 39, M. mucogenicum group, M. mucogenicum)?
A: Its MIC is no more than 2 µg/mL.

Q: And the MIC ([5]; isolate 40, M. mucogenicum group, M. mucogenicum)?
A: Its MIC is no more than 2 µg/mL.

Q: What about the MIC ([5]; isolate 41, M. mucogenicum group, M. mucogenicum) of the same compound?
A: Its MIC is no more than 2 µg/mL.

Q: What about the MIC ([5]; isolate 42, M. mucogenicum group, M. mucogenicum) of the same compound?
A: Its MIC is no more than 2 µg/mL.

Q: What about the MIC ([5]; isolate 43, M. mucogenicum group, M. phocaicum) of the same compound?
A: Its MIC is no more than 2 µg/mL.

Q: And the MIC ([5]; isolate 44, M. mucogenicum group, M. phocaicum)?
A: Its MIC is no more than 2 µg/mL.

Q: What about the MIC ([5]; isolate 45, M. mucogenicum group, M. phocaicum) of the same compound?
A: The MIC was no more than 2 µg/mL.

Q: And the MIC ([5]; isolate 46, M. mucogenicum group, M. phocaicum)?
A: The MIC was no more than 2 µg/mL.

Q: And the MIC ([5]; isolate 47, M. mucogenicum group, M. phocaicum)?
A: Its MIC is no more than 2 µg/mL.

Q: What about the MIC ([5]; isolate 48, M. mucogenicum group, M. phocaicum) of the same compound?
A: The MIC was no more than 2 µg/mL.

Q: What about the MIC ([6]; isolate 18, M. chelonae) of the same compound?
A: Its MIC is 8 µg/mL (≈ 13.7 µM).

Q: And the MIC ([6]; isolate 19, M. chelonae)?
A: The MIC was 16 µg/mL (≈ 27.3 µM).

Q: And the MIC ([6]; isolate 20, M. chelonae)?
A: Its MIC is 16 µg/mL (≈ 27.3 µM).

Q: And the MIC ([6]; isolate 21, M. chelonae)?
A: Its MIC is 16 µg/mL (≈ 27.3 µM).

Q: What about the MIC ([6]; isolate 22, M. chelonae) of the same compound?
A: Its MIC is 16 µg/mL (≈ 27.3 µM).
